In brackets after ≈: the same amount, converted by molar mass. Read-outs that look alike come from different tables or passages of the source.
How the values were obtained:
[1] = test system: HCMV recombinant mutant virus whose genome contains the prokaryotic beta-glucuronidase gene; experiment: microbe, parasite or virus in culture; format: cell-based, human cytomegalovirus; conditions: Human betaherpesvirus 5, Fibroblast
How it was run: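 Human foreskin fibroblasts infected with HCMV recombinant carrying beta-glucuronidase under a viral promoter (e.g. RV145) in presence of compound. At 96 h post-infection, lysates assayed for beta-glucuronidase by colorimetric or fluorogenic substrate as replication readout; IC50 estimated from varying compound amounts.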

[2] = test system: HSV- I; experiment: HSV antiviral (ELISA) assay; format: cell-based; conditions: read-out: IC50 (ug/ml) HSV
How it was run: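 Vero cells in DMEM with 2% FBS treated with compound 30 min before HSV-1 infection (MOI 0.006), then incubated ~24 h at 37°C. Viral replication measured by ELISA against glycoprotein D with β-galactosidase-linked secondary and fluorogenic substrate (ex 365/em 450 nm); IC50 relative to untreated fluorescence.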

[3] = test system: VZV strain Ellen; experiment: VZV antiviral (ELISA) assay; format: cell-based
How it was run: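 HFF cells infected with VZV Ellen at multiplicity below 0.1 overnight, then mixed infected/uninfected cells seeded with compound in DMEM/2% FBS and incubated three days at 37°C, 5% CO2.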

[4] = read-out: IC50 ug/ml HCMV, HCMV, human foreskin fibroblasts
[5] = Human alphaherpesvirus 3, HFF, read-out: % inhibition 10 ug/ml VZV
[6] = Human alphaherpesvirus 3, HFF, read-out: IC50 (ug/ml) VZV
[7] = Human alphaherpesvirus 3, read-out: % inhibition 10 ug/ml VZV, 10 ug/ml, VZV strain Ellen, HFF cells, ELISA
[8] = Human alphaherpesvirus 3, VZV strain Ellen, HFF cells, ELISA, read-out: IC50 (ug/ml) VZV

| Compound | IC50 [1, 4] | IC50 ([2]; HSV- I, Vero cells, ELISA) | inhibition at 10 µg/mL [3, 5] | IC50 [3, 6] | IC50 ([2]; Vero) | IC50 ([3]; Human alphaherpesvirus 3, HFF, read-out: IC50 (ug/ml) VZV, VZV strain Ellen, HFF cells, ELISA) | IC50 ([1]; read-out: IC50 ug/ml HCMV) | inhibition at 10 µg/mL [3, 7] | IC50 [3, 8] |
| --- | --- | --- | --- | --- | --- | --- | --- | --- | --- |
| CS(=O)(=O)Nc1ccc(NC(=S)Nc2ccc(NC(=O)c3ccccc3F)cc2)cc1Cl [Example 370, N-{4-[3-(3-Chloro-4-methanesulfonylamino-phenyl)-thioureido]-phenyl}-2-fluoro-benzamide] | > 10 µg/mL | > 10 µg/mL | 16% | > 10 µg/mL | – | – | – | – | – |
| CN(C)CCSCC(=O)Nc1ccc(NC(=S)Nc2ccc(NC(=O)c3ccccc3F)cc2)cc1Cl [Example 373, N-[4-(3-{3-Chloro-4-[2-(2-dimethylamino-ethylsulfanyl)-acetylamino]-phenyl}-thioureido)-phenyl]-2-fluoro-benzamide] | 6 µg/mL (≈ 10.7 µM) | 9 µg/mL (≈ 16.1 µM) | 4% | > 10 µg/mL | – | – | – | – | – |
| Cc1ccccc1C(=O)Nc1ccc(NC(=S)Nc2ccc(N(C)C3CCN(Cc4ccccc4)C3)c(Cl)c2)cc1 (stereo not drawn) [Example 374, N-[4-(3-{4-[(1-Benzyl-pyrrolidin-3-yl)-methyl-amino]-3-chloro-phenyl}-thioureido)-phenyl]-2-methyl-benzamide] | 3 µg/mL (≈ 5.14 µM) | 3 µg/mL (≈ 5.14 µM) | 70% | 4 µg/mL (≈ 6.85 µM) | – | – | – | – | – |
| Cc1ccccc1C(=O)Nc1ccc(NC(=S)Nc2ccc(N(C)C3CCN(C)CC3)c(Cl)c2)cc1 [Example 375, N-[4-(3-{3-Chloro-4-[methyl-(1-methyl-piperidin-4-yl)-amino]-phenyl}-thioureido)-phenyl]-2-methyl-benzamide] | 1.5 µg/mL (≈ 2.87 µM) | 5 µg/mL (≈ 9.58 µM) | 95% | 7 µg/mL (≈ 13.4 µM) | – | – | – | – | – |
| O=C(Nc1ccc(NC(=S)Nc2ccc(Cl)c(C(F)(F)F)c2)cc1)c1c(F)cccc1F [Example 380, N-{4-[3-(4-Chloro-3-trifluoromethyl-phenyl)-thioureido]-phenyl}-2,6-difluoro-benzamide] | > 10 µg/mL | > 10 µg/mL | 50% | > 10 µg/mL | – | – | – | – | – |
| CCSc1ccc(NC(=S)Nc2ccc(NC(=O)c3ccccc3F)cc2)cc1Cl [Example 386, N-{4-[3-(3-Chloro-4-ethylsulfanyl-phenyl)-thioureido]-phenyl}-2-fluoro-benzamide] | 2 µg/mL (≈ 4.35 µM) | > 10 µg/mL | 29% | > 10 µg/mL | – | – | – | – | – |
| CCCCSc1ccc(NC(=S)Nc2ccc(NC(=O)c3ccccc3F)cc2)cc1Cl [Example 387, N-{4-[3-(4-Butylsulfanyl-3-chloro-phenyl)-thioureido]-phenyl}-2-fluoro-benzamide] | > 10 µg/mL | > 10 µg/mL | 26% | > 10 µg/mL | – | – | – | – | – |
| C[S+]([O-])c1ccc(NC(=S)Nc2ccc(NC(=O)c3c(F)cccc3F)cc2)cc1Cl (stereo not drawn) [Example 392, N-{4-[3-(3-Chloro-4-methanesulfinyl-phenyl)-thioureido]-phenyl}-2,6-difluoro-benzamide] | 0.5 µg/mL (≈ 1.04 µM) | > 10 µg/mL | 92% | 2 µg/mL (≈ 4.17 µM) | – | – | – | – | – |
| CS(=O)(=O)c1ccc(NC(=S)Nc2ccc(NC(=O)c3c(F)cccc3F)cc2)cc1Cl [Example 393, N-{4-[3-(3-Chloro-4-methanesulfonyl-phenyl)-thioureido]-phenyl}-2,6-difluoro-benzamide] | 0.5 µg/mL (≈ 1.01 µM) | > 10 µg/mL | 62% | > 10 µg/mL | – | – | – | – | – |
| Cc1ccc(NC(=S)Nc2ccc(NC(=O)c3ccccc3F)c(C)c2)cc1Cl [Example 395, N-{4-[3-(3-Chloro-4-methyl-phenyl)-thioureido]-2-methyl-phenyl}-2-fluoro-benzamide] | 3 µg/mL (≈ 7.01 µM) | 0.2 µg/mL (≈ 0.467 µM) | 64% | > 10 µg/mL | – | – | – | – | – |
| CC(=O)Nc1ccc(NC(=S)Nc2ccc(NC(=O)c3ccccc3F)cc2)cc1Cl [Example 397, N-{4-[3-(4-Acetylamino-3-chloro-phenyl)-thioureido]-phenyl}-2-fluoro-benzamide] | 10 µg/mL (≈ 21.9 µM) | 5 µg/mL (≈ 10.9 µM) | 35% | > 10 µg/mL | – | – | – | – | – |
| CCOC(=O)Nc1ccc(NC(=S)Nc2ccc(NC(=O)c3ccccc3F)cc2)cc1Cl [Example 399, (2-Chloro-4-{3-[4-(2-fluoro-benzoylamino)-phenyl]-thioureido}-phenyl)-carbamic acid ethyl ester] | 1.5 µg/mL (≈ 3.08 µM) | – | 59% | – | > 10 µg/mL | > 10 µg/mL | – | – | – |
| Nc1ccc(NC(=S)Nc2ccc(NC(=O)c3ccccc3F)cc2)cc1Cl [Example 404, N-{4-[3-(4-Amino-3-chloro-phenyl)-thioureido]-phenyl}-2-fluoro-benzamide] | 8 µg/mL (≈ 19.3 µM) | 0.4 µg/mL (≈ 0.964 µM) | 15% | > 10 µg/mL | – | – | – | – | – |
| O=C(CN1CCSCC1)Nc1ccc(NC(=S)Nc2ccc(NC(=O)c3ccccc3F)cc2)cc1Cl [Example 407, N-(4-{3-[3-Chloro-4-(2-thiomorpholin-4-yl-acetylamino)-phenyl]-thioureido}-phenyl)-2-fluoro-benzamide] | > 10 µg/mL | 4 µg/mL (≈ 7.17 µM) | 87% | 0.7 µg/mL (≈ 1.25 µM) | – | – | – | – | – |
| CCN(CC)CC(=O)Nc1ccc(NC(=S)Nc2ccc(NC(=O)c3ccccc3F)cc2)cc1Cl [Example 414, N-(4-{3-[3-Chloro-4-(2-diethylamino-acetylamino)-phenyl]-thioureido}-phenyl)-2-fluoro-benzamide] | > 10 µg/mL | 6 µg/mL (≈ 11.4 µM) | 70% | > 15 µg/mL | – | – | – | – | – |
| O=C(CN1CCCC1)Nc1ccc(NC(=S)Nc2ccc(NC(=O)c3ccccc3F)cc2)cc1Cl [Example 417, N-(4-{3-[3-Chloro-4-(2-pyrrolidin-1-yl-acetylamino)-phenyl]-thioureido}-phenyl)-2-fluoro-benzamide] | > 10 µg/mL | 6 µg/mL (≈ 11.4 µM) | 15% | > 10 µg/mL | – | – | – | – | – |
| O=C(CN1CCCCCC1)Nc1ccc(NC(=S)Nc2ccc(NC(=O)c3ccccc3F)cc2)cc1Cl [Example 423, N-(4-{3-[4-(2-Azepan-1-yl-acetylamino)-3-chloro-phenyl]-thioureido}-phenyl)-2-fluoro-benzamide] | 1 µg/mL (≈ 1.8 µM) | 4 µg/mL (≈ 7.22 µM) | 87% | 0.9 µg/mL (≈ 1.62 µM) | – | – | – | – | – |
| CC1CCCCN1CC(=O)Nc1ccc(NC(=S)Nc2ccc(NC(=O)c3ccccc3F)cc2)cc1Cl (stereo not drawn) [Example 425, N-[4-(3-{3-Chloro-4-[2-(2-methyl-piperidin-1-yl)-acetylamino]-phenyl}-thioureido)-phenyl]-2-fluoro-benzamide] | 0.5 µg/mL (≈ 0.902 µM) | – | 103% | > 7.5 µg/mL | 3 µg/mL (≈ 5.41 µM) | – | – | – | – |
| Cc1cccc(NC(=S)Nc2ccc(NC(=O)c3ccccc3F)cc2)c1 [Example 432, 2-Fluoro-N-[4-(3-m-tolyl-thioureido)-phenyl]-benzamide] | – | 1.6 µg/mL (≈ 4.22 µM) | – | – | – | – | 10 µg/mL (≈ 26.4 µM) | 0% | > 10 µg/mL |
| O=C(Nc1ccc(NC(=S)Nc2cccc(C(F)(F)F)c2)cc1)c1ccccc1F [Example 433, 2-Fluoro-N-{4-[3-(3-trifluoromethyl-phenyl)-thioureido]-phenyl}-benzamide] | – | > 10 µg/mL | – | – | – | – | > 10 µg/mL | 0% | > 10 µg/mL |
| Nc1cccc(NC(=S)Nc2ccc(NC(=O)c3ccccc3F)cc2)c1 [Example 434, N-{4-[3-(3-Amino-phenyl)-thioureido]-phenyl}-2-fluoro-benzamide] | – | 10 µg/mL (≈ 26.3 µM) | – | – | – | – | 5 µg/mL (≈ 13.1 µM) | 0% | > 10 µg/mL |
